Test systems include CAKI-1; OVCAR-4; HCT-116; 786-0; SK-MEL-5; HCT-15; A498; OVCAR-5; COLO 205; EKVX; NCI-H522; CCRF-CEM; TK-10; RXF 393; UACC-62; HL-60; MOLT-4; NCI/ADR-RES; MDA-MB-231.
Experiment in all cases: growth of human tumour cells (NCI), 48 h

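Assay format: 96-well plates, 48-hour exposure. GI50 = concentration required for 50% inhibition of growth.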 The source made the active and inactive calls. No stated cut-off is given here; in the data, active = GI50 up to about 1.1 µM and inactive = higher.

Regarding `Cc1ccc(NC(=O)C(=O)CC(=O)c2c(C)[n+]([O-])c3ccccc3[n+]2[O-])cc1C`, the GI50 was > 100 µM (inactive) with CAKI-1; > 100 µM (inactive) in the test with OVCAR-4; > 100 µM (inactive) in the test with HCT-116; > 100 µM (inactive) in the test with 786-0; > 100 µM (inactive) in the test with SK-MEL-5; 83.2 µM with HCT-15. Further, the GI50 in the test with A498 is > 100 µM (inactive); with OVCAR-5, > 100 µM (inactive); with COLO 205, 43.7 µM (inactive); with EKVX it was > 100 µM (inactive); in the test with NCI-H522 it was 66.2 µM (inactive); in the test on CCRF-CEM, 63.1 µM (inactive). Also, the GI50 is > 100 µM (inactive) in the test with TK-10, 44.7 µM (inactive) in the test on RXF 393, > 100 µM (inactive) in the test with UACC-62 and > 100 µM (inactive) in the test on HL-60.
Consider `CC12CCCCC1(C)C2Sc1ccccc1` (stereo unspecified), for which the GI50 was 19.1 µM (inactive) in the test on MOLT-4; > 56.1 µM (inactive) in the test on CAKI-1; > 73.3 µM (inactive) in the test on OVCAR-4; 38.1 µM (inactive) with HCT-116; 44.8 µM (inactive) with 786-0; 31 µM (inactive) in the test with SK-MEL-5. For the same compound, the GI50 in the test on HCT-15 is 55.5 µM; with A498, > 50.4 µM (inactive); in the test with OVCAR-5, > 100 µM (inactive); in the test with COLO 205 it was > 65.3 µM (inactive); in the test with EKVX it was > 57.3 µM (inactive); with NCI-H522, 28.9 µM (inactive). The GI50 in the test with CCRF-CEM was 19.7 µM (inactive); with TK-10, > 100 µM (inactive); with RXF 393 it was 23.9 µM (inactive); in the test on UACC-62 it was 56.9 µM (inactive); in the test with HL-60 it was 17.5 µM (inactive).
Turning to `O[C@H]1[C@H](O)[C@@H](O)CN2CC[C@H](O)[C@H]12` [CASTANOSPERMINE], the GI50 in the test with MOLT-4 was > 100 µM (inactive); with CAKI-1 it was > 100 µM (inactive); in the test on OVCAR-4, > 86.7 µM (inactive); in the test with HCT-116 it was > 100 µM (inactive); in the test on SK-MEL-5, > 100 µM (inactive); in the test on HCT-15, over 100 µM. In addition, the GI50 with A498, in the test with OVCAR-5, in the test on COLO 205, in the test on EKVX, in the test with NCI-H522 and with CCRF-CEM was > 100 µM (inactive) each time. For the same compound, the GI50 in the test on RXF 393 is > 100 µM (inactive); with UACC-62 it was > 100 µM (inactive); in the test on HL-60, > 39.8 µM (inactive); in the test with NCI/ADR-RES, > 100 µM (inactive).
Regarding `COC(=O)CCCc1nc2ccccc2nc1/N=N/c1ccccc1`, the GI50 was 9.93 µM (inactive) in the test on MOLT-4; 41.6 µM (inactive) with CAKI-1; 50.8 µM (inactive) in the test on OVCAR-4; 30.3 µM (inactive) with HCT-116; 38.1 µM (inactive) with 786-0; 61.1 µM (inactive) in the test on SK-MEL-5. For the same compound, the GI50 is 23.9 µM with HCT-15; > 100 µM (inactive) with A498; > 100 µM (inactive) in the test on OVCAR-5; 3.71 µM (inactive) in the test with COLO 205; 73.6 µM (inactive) in the test on EKVX; 19.1 µM (inactive) with NCI-H522. Moreover, the GI50 with CCRF-CEM was 30.1 µM (inactive); with MDA-MB-231, > 100 µM (inactive); in the test on TK-10, > 100 µM (inactive); in the test with RXF 393 it was 62.5 µM (inactive); with UACC-62 it was > 100 µM (inactive); in the test on HL-60 it was 2.57 µM (inactive). Further, the GI50 in the test on NCI/ADR-RES is 18.7 µM (inactive).
`Cn1c(-c2ccccc2)cc(-c2cccs2)c1-c1cccs1`: the GI50 was 48.9 µM (inactive) in the test on MOLT-4; > 100 µM (inactive) in the test with CAKI-1; > 96.4 µM (inactive) in the test on OVCAR-4; > 100 µM (inactive) with HCT-116; 45.3 µM (inactive) with SK-MEL-5; 46.2 µM in the test with HCT-15. In addition, the GI50 was > 100 µM (inactive) in the test on A498; > 100 µM (inactive) in the test on OVCAR-5; 82.6 µM (inactive) in the test on COLO 205; 34.2 µM (inactive) in the test on EKVX; > 64.6 µM (inactive) in the test with NCI-H522; 18.2 µM (inactive) in the test on CCRF-CEM. The GI50 with RXF 393 was > 81.3 µM (inactive); with UACC-62 it was > 100 µM (inactive); in the test with HL-60 it was 54.8 µM (inactive); in the test with NCI/ADR-RES, > 100 µM (inactive).
On to `Cc1ccccc1NC(=O)C1C(=O)N(c2ccccc2C)C(=O)/C1=N\NC(N)=O` (stereo unspecified), for which the GI50 with MOLT-4, in the test with CAKI-1, in the test with OVCAR-4, with HCT-116, in the test on 786-0 and in the test with SK-MEL-5 was > 100 µM (inactive) in each case. Besides, the GI50 with HCT-15 is over 100 µM; in the test with A498, > 100 µM (inactive); in the test with OVCAR-5, > 100 µM (inactive); with COLO 205, > 100 µM (inactive); in the test with EKVX, > 100 µM (inactive); in the test with NCI-H522 it was > 100 µM (inactive). For the same compound, the GI50 in the test with CCRF-CEM, in the test with TK-10, in the test with RXF 393, in the test on UACC-62 and with HL-60 was > 100 µM (inactive) each time.
Consider `COc1ccc2[nH]c(=O)cc(C)c2c1[N+](=O)[O-]`, for which the GI50 in the test with MOLT-4 is > 100 µM (inactive); with CAKI-1 it was 31.7 µM (inactive); with OVCAR-4, > 100 µM (inactive); in the test with HCT-116, > 100 µM (inactive); in the test on 786-0 it was > 100 µM (inactive); with SK-MEL-5, > 100 µM (inactive). Besides, the GI50 was over 100 µM in the test on HCT-15; 54.8 µM (inactive) in the test with A498; > 100 µM (inactive) in the test with OVCAR-5; > 100 µM (inactive) in the test with COLO 205; 82 µM (inactive) in the test with EKVX; 47.4 µM (inactive) in the test with NCI-H522. Also, the GI50 in the test with CCRF-CEM was > 100 µM (inactive); in the test on TK-10 it was > 100 µM (inactive); in the test on RXF 393 it was > 10 µM (inactive); in the test on UACC-62, > 100 µM (inactive); with HL-60 it was > 100 µM (inactive).
On to `CCC(C(=O)O)c1ccc(OCc2ccccc2)cc1` (stereo unspecified), for which the GI50 with MOLT-4, in the test with CAKI-1, in the test with OVCAR-4, in the test on HCT-116, with SK-MEL-5 and in the test on A498 was > 100 µM (inactive) throughout. Moreover, the GI50 in the test with OVCAR-5, in the test on COLO 205, with EKVX, in the test with NCI-H522, with CCRF-CEM and in the test on TK-10 was > 100 µM (inactive) each time. Further, the GI50 in the test with RXF 393, in the test with UACC-62 and in the test on HL-60 was > 100 µM (inactive) each time.
With `O=C1c2cccc(NCCNCCO)c2C(=O)c2cccc(NCCNCCO)c21`, the GI50 in the test with MOLT-4 was 0.443 µM (active); in the test with CAKI-1, 0.64 µM (active); in the test on OVCAR-4, 0.889 µM (active); in the test on HCT-116, 0.43 µM (active); in the test on 786-0, 0.665 µM (active); with SK-MEL-5, 1.69 µM (inactive). The GI50 in the test with HCT-15 is 5.28 µM; in the test on A498 it was 2.48 µM (inactive); in the test with OVCAR-5 it was 1.53 µM (inactive); in the test with COLO 205, 0.661 µM (active); with EKVX, 1.78 µM (inactive); with NCI-H522, 0.312 µM (active). The GI50 was 0.267 µM (active) with CCRF-CEM; 3.73 µM (inactive) in the test on TK-10; 1.59 µM (inactive) with RXF 393; 1.81 µM (inactive) with UACC-62; 1.6 µM (inactive) with HL-60; 10.9 µM (inactive) in the test on NCI/ADR-RES.
`COc1ccc(C2=Nc3c(nc(SC)[nH]c3=O)NC(c3ccccc3)C2)cc1` (stereo unspecified): the GI50 with MOLT-4 was 18.7 µM (inactive); in the test on CAKI-1 it was 17.1 µM (inactive); in the test on HCT-116, 30.9 µM (inactive); with 786-0 it was 26.3 µM (inactive); in the test on SK-MEL-5, 16.6 µM (inactive); in the test on A498, 33.3 µM (inactive). Further, the GI50 is 34.5 µM (inactive) in the test with OVCAR-5; 19.6 µM (inactive) in the test with COLO 205; 24.4 µM (inactive) in the test with EKVX; 17.1 µM (inactive) in the test with NCI-H522; 29 µM (inactive) in the test on CCRF-CEM; 14.3 µM (inactive) in the test on MDA-MB-231. Besides, the GI50 is 20.7 µM (inactive) in the test with RXF 393, > 10 µM (inactive) with UACC-62, 18.1 µM (inactive) with HL-60 and 20 µM (inactive) with NCI/ADR-RES.
`Sc1nn2c(COc3ccc(Cl)cc3)nnc2s1`: the GI50 with MOLT-4, in the test on CAKI-1, in the test with OVCAR-4, with HCT-116, in the test with 786-0 and with SK-MEL-5 was > 100 µM (inactive) throughout. For the same compound, the GI50 is 81.8 µM in the test with HCT-15; > 100 µM (inactive) in the test on OVCAR-5; > 100 µM (inactive) in the test with COLO 205; > 100 µM (inactive) in the test with EKVX; > 100 µM (inactive) with NCI-H522; > 100 µM (inactive) in the test on MDA-MB-231. Besides, the GI50 in the test on TK-10, in the test on RXF 393, in the test with UACC-62, with HL-60 and in the test on NCI/ADR-RES was > 100 µM (inactive) in each case.
Turning to `COc1ccc(-c2oc3cc(O)cc(O)c3c(=O)c2OC)cc1` [ERMANIN], the GI50 is 20.9 µM (inactive) in the test on MOLT-4; 24.3 µM (inactive) with CAKI-1; 44.6 µM (inactive) in the test on OVCAR-4; 39.9 µM (inactive) in the test with HCT-116; 16.7 µM (inactive) in the test with SK-MEL-5; 23.4 µM in the test on HCT-15. In addition, the GI50 with A498 is 24.4 µM (inactive); with OVCAR-5, > 100 µM (inactive); in the test on COLO 205 it was 20.7 µM (inactive); with EKVX, 51.2 µM (inactive); in the test with NCI-H522, 2.48 µM (inactive); in the test with CCRF-CEM, 22.1 µM (inactive). In addition, the GI50 is 31.8 µM (inactive) in the test with MDA-MB-231; 39.9 µM (inactive) in the test on TK-10; 21.5 µM (inactive) in the test on UACC-62; 14.1 µM (inactive) in the test with HL-60; 27.2 µM (inactive) in the test on NCI/ADR-RES.
